Source: US20200407717A1, “METHODS OF MODULATING ANTISENSE ACTIVITY” (Ionis Pharmaceuticals, Inc., priority 2018, published 2020)
e = 2'-O-(2-methoxyethyl) (MOE); d = 2'-deoxy (DNA)

Key:
[1] = target: EGFR (Homo sapiens, UniProt P00533); assay: Competitive NanoBRET binding assay; parameters: made in house; host or cells: HEK293 cells; details: Competitive BRET vs 10 nM AF594-labeled 766636; Table 6
Protocol: NanoBRET (bioluminescence resonance energy transfer) binding assays were performed as described in Vickers and Crooke. PLOS One, 11(8), (2016). An EGFR NLuc construct was prepared by first amplifying human EGFR from the full length cDNA clone (Origene RC217223) with forward PCR primer 5′-[…]-3′ (SEQ ID NO: 1) and reverse PCR primer 5′-[…] (SEQ ID NO: 2). The amplified product was ligated into the NheI and XhoI sites of the NanoLuc expression vector pFC32K Nluc CMV-Neo (Promega). Protein was expressed in HEK293 cells and isolated using Protein G magnetic beads. For competitive BRET, the Alexafluor594-labeled modified oligonucleotide 766636 was diluted into water in opaque white 96-well plates at 10 nM and competed with 0.1-10,000 nM of unlabeled modified oligonucleotide. […] of 2× binding buffer containing […] (relative luminescence units) beads/well was added and plates were shaken for 10 minutes at room temperature. Nanoluciferase activity and BRET were measured in a Glowmax Discover plate reader and EC50 values, shown in the tables below, were calculated using GraphPad Prism. For direct BRET, Alexafluor594 modified nucleotides were diluted at 0.1-10,000 nM and experiments were performed as described above.

[2] = system: EGFR; assay: Microscopy of EGF-induced internalization and recycling of EGFR; format: cell-based; details: with EGF, 16 hours
Protocol: Microscopy studies were also carried out to evaluate the EGF-induced internalization and recycling of EGFR in the presence of Cy3-labeled PS-ASO, compound no. 446654. Cells were treated with EGF alone or EGF and compound no. 446654 for 16 hours. The cells were then either immediately stained and imaged, or the EGF and, if applicable, compound no. 446654 were removed for two hours prior to staining and imaging. Staining and imaging were performed as described above. […] Two hours after removal of EGF, cells show EGFR staining primarily in the plasma membrane. […] Two hours after removal of EGF and/or compound no. 446654, the Cy3 signal remained diffuse throughout the cytoplasm, while EGFR staining primarily localized to the plasma membrane.

[3] = system: A431 cells; assay: Uptake of Cy3-labeled ASO by flow cytometry, A431 cells; format: cell-based
Protocol: (§1) Uptake of compound no. 446654 by A431 cells was measured by flow cytometry. A431 cells were treated with a growth factor for 4 hours prior to incubation with compound no. 446654 for 2 hours. Results are presented in the tables below as relative fluorescence units (RFU) and represent an average of three independent experiments.
Uptake of compound no. 446654 was measured in siRNA treated A431 cells via flow cytometry, as described in example 8. The results are presented in the tables below and indicate that uptake of compound no. 446654 was unaffected by EGFR expression level.

[4] = system: HEK cells; assay: Uptake by flow cytometry, HEK cells; format: cell-based
Protocol: as §1
Uptake of compound no. 446654 was measured via flow cytometry, as in Example 8, in HEK cells overexpressing EGFR and wild type HEK cells.

How did the EC50 [1] turn out when “AGGAAGGAAGCTGGCGATCT (sugars from the 5' end e5 d10 e5, all phosphorothioate, methylation of C not given here) [compound 25690]” was run?
The EC50 was 1450 nM.

How did the “distribution of the ASO in cells” value [2] turn out when “Cy3-^mCesTesGes^mCesTesAdsGds^mCdsTds^mCdsTdsGdsGdsAdsTesTesTesGesAe (antisense CTGCTAGCCTCTGGATTTGA; listed as DNA, chemistry not fully specified) [compound 446654, Cy3-labeled PS-ASO]” was run?
The value was “distributed throughout the cytoplasm”.

What about the RFU ([3]; 0.015 μM, Control Luciferase siRNA) of the same substance?
Its RFU is 22.3 RFU.

What about the RFU ([3]; 0.015 μM, EGFR siRNA-1) of the same substance?
The RFU was 25.3 RFU.

What about the RFU ([3]; 0.015 μM, EGFR siRNA-2) of the same substance?
Its RFU is 24.7 RFU.

What about the RFU ([3]; 0.03 μM, Control Luciferase siRNA) of the same substance?
Its RFU is 31.3 RFU.

And the RFU ([3]; 0.03 μM, EGFR siRNA-1)?
Its RFU is 33.0 RFU.

And the RFU ([3]; 0.03 μM, EGFR siRNA-2)?
The RFU was 29.0 RFU.

And the RFU ([3]; 0.06 μM, Control Luciferase siRNA)?
Its RFU is 136 RFU.

And the RFU ([3]; 0.06 μM, EGFR siRNA-1)?
The RFU was 133 RFU.

What about the RFU ([3]; 0.06 μM, EGFR siRNA-2) of the same substance?
Its RFU is 101 RFU.

And the RFU ([3]; 0.12 μM, Control)?
Its RFU is 1475 RFU.

What about the RFU ([3]; 0.12 μM, Control Luciferase siRNA) of the same substance?
Its RFU is 359 RFU.

And the RFU ([3]; 0.12 μM, EGF)?
Its RFU is 1772 RFU.

And the RFU ([3]; 0.12 μM, EGFR siRNA-1)?
The RFU was 444 RFU.

What about the RFU ([3]; 0.12 μM, EGFR siRNA-2) of the same substance?
The RFU was 292 RFU.

And the RFU ([3]; 0.12 μM, FGF)?
Its RFU is 1420 RFU.

What about the RFU ([3]; 0.12 μM, HGF) of the same substance?
Its RFU is 1204 RFU.

What about the RFU ([3]; 0.12 μM, IGF) of the same substance?
The RFU was 1659 RFU.

What about the RFU ([3]; 0.12 μM, PGF) of the same substance?
The RFU was 1321 RFU.

What about the RFU ([3]; 0.12 μM, TGF) of the same substance?
The RFU was 1500 RFU.

And the RFU ([3]; 0.12 μM, VEGF)?
Its RFU is 1147 RFU.

And the RFU ([3]; 0.25 μM, Control)?
The RFU was 1606 RFU.

What about the RFU ([3]; 0.25 μM, Control Luciferase siRNA) of the same substance?
The RFU was 806 RFU.

And the RFU ([3]; 0.25 μM, EGF)?
Its RFU is 1917 RFU.

And the RFU ([3]; 0.25 μM, EGFR siRNA-1)?
The RFU was 879 RFU.

What about the RFU ([3]; 0.25 μM, EGFR siRNA-2) of the same substance?
The RFU was 852 RFU.

And the RFU ([3]; 0.25 μM, FGF)?
The RFU was 1682 RFU.

What about the RFU ([3]; 0.25 μM, HGF) of the same substance?
Its RFU is 1481 RFU.

What about the RFU ([3]; 0.25 μM, IGF) of the same substance?
The RFU was 1435 RFU.

What about the RFU ([3]; 0.25 μM, PGF) of the same substance?
Its RFU is 1275 RFU.

What about the RFU ([3]; 0.25 μM, TGF) of the same substance?
The RFU was 1871 RFU.

And the RFU ([3]; 0.25 μM, VEGF)?
The RFU was 1423 RFU.

And the RFU ([3]; 0.5 μM, Control)?
The RFU was 2223 RFU.

And the RFU ([3]; 0.5 μM, Control Luciferase siRNA)?
The RFU was 1392 RFU.

What about the RFU ([3]; 0.5 μM, EGF) of the same substance?
The RFU was 2349 RFU.

What about the RFU ([3]; 0.5 μM, EGFR siRNA-1) of the same substance?
Its RFU is 1437 RFU.

What about the RFU ([3]; 0.5 μM, EGFR siRNA-2) of the same substance?
The RFU was 1490 RFU.

What about the RFU ([3]; 0.5 μM, FGF) of the same substance?
Its RFU is 1827 RFU.

And the RFU ([3]; 0.5 μM, HGF)?
The RFU was 2095 RFU.

What about the RFU ([3]; 0.5 μM, IGF) of the same substance?
Its RFU is 1917 RFU.

And the RFU ([3]; 0.5 μM, PGF)?
The RFU was 2112 RFU.

And the RFU ([3]; 0.5 μM, TGF)?
The RFU was 2081 RFU.

What about the RFU ([3]; 0.5 μM, VEGF) of the same substance?
The RFU was 1973 RFU.

What about the RFU ([3]; 1.0 μM, Control) of the same substance?
Its RFU is 1565 RFU.

And the RFU ([3]; 1.0 μM, Control Luciferase siRNA)?
The RFU was 2374 RFU.

What about the RFU ([3]; 1.0 μM, EGF) of the same substance?
Its RFU is 2532 RFU.

And the RFU ([3]; 1.0 μM, EGFR siRNA-1)?
Its RFU is 2614 RFU.

And the RFU ([3]; 1.0 μM, EGFR siRNA-2)?
Its RFU is 2906 RFU.

And the RFU ([3]; 1.0 μM, FGF)?
Its RFU is 2414 RFU.

And the RFU ([3]; 1.0 μM, HGF)?
The RFU was 2533 RFU.

What about the RFU ([3]; 1.0 μM, IGF) of the same substance?
The RFU was 2237 RFU.

What about the RFU ([3]; 1.0 μM, PGF) of the same substance?
Its RFU is 2487 RFU.

And the RFU ([3]; 1.0 μM, TGF)?
The RFU was 2826 RFU.

And the RFU ([3]; 1.0 μM, VEGF)?
Its RFU is 2655 RFU.

What about the RFU ([3]; Time 0.25 hours, Control Luciferase siRNA) of the same substance?
Its RFU is 1082 RFU.

And the RFU ([3]; Time 0.25 hours, EGFR siRNA-1)?
Its RFU is 814 RFU.

And the RFU ([3]; Time 0.25 hours, EGFR siRNA-2)?
Its RFU is 950 RFU.

And the RFU ([3]; Time 0.5 hours, Control Luciferase siRNA)?
The RFU was 1988 RFU.

What about the RFU ([3]; Time 0.5 hours, EGFR siRNA-1) of the same substance?
The RFU was 1562 RFU.

What about the RFU ([3]; Time 0.5 hours, EGFR siRNA-2) of the same substance?
The RFU was 1637 RFU.

What about the RFU ([3]; Time 1 hours, Control Luciferase siRNA) of the same substance?
The RFU was 2315 RFU.

And the RFU ([3]; Time 1 hours, EGFR siRNA-1)?
Its RFU is 2308 RFU.

And the RFU ([3]; Time 1 hours, EGFR siRNA-2)?
The RFU was 2698 RFU.

What about the RFU ([3]; Time 2 hours, Control Luciferase siRNA) of the same substance?
The RFU was 2276 RFU.

And the RFU ([3]; Time 2 hours, EGFR siRNA-1)?
The RFU was 2280 RFU.

What about the RFU ([3]; Time 2 hours, EGFR siRNA-2) of the same substance?
Its RFU is 2349 RFU.

What about the RFU ([3]; Time 4 hours, Control Luciferase siRNA) of the same substance?
Its RFU is 3103 RFU.

What about the RFU ([3]; Time 4 hours, EGFR siRNA-1) of the same substance?
The RFU was 2854 RFU.

And the RFU ([3]; Time 4 hours, EGFR siRNA-2)?
The RFU was 3069 RFU.

What about the RFU ([3]; Time 6 hours, Control Luciferase siRNA) of the same substance?
Its RFU is 4300 RFU.

What about the RFU ([3]; Time 6 hours, EGFR siRNA-1) of the same substance?
The RFU was 3747 RFU.

And the RFU ([3]; Time 6 hours, EGFR siRNA-2)?
Its RFU is 3821 RFU.

What about the RFU ([3]; Time 8 hours, Control Luciferase siRNA) of the same substance?
The RFU was 4988 RFU.

And the RFU ([3]; Time 8 hours, EGFR siRNA-1)?
Its RFU is 5048 RFU.

And the RFU ([3]; Time 8 hours, EGFR siRNA-2)?
The RFU was 5145 RFU.

What about the “total uptake, effect of growth factor treatment” value ([3]; growth factor 4 hours, then compound 2 hours) of the same substance?
The value was “not affected in a significant, dose dependent manner”.

And the “uptake, effect of EGFR expression level” value ([3]; siRNA treated A431 cells)?
Its value is “unaffected”.

And the RFU ([4]; 0.25 μM, Overexpressing EGFR)?
Its RFU is 123 RFU.

And the RFU ([4]; 0.25 μM, Wild type HEK cells)?
The RFU was 109 RFU.

What about the RFU ([4]; 0.5 μM, Overexpressing EGFR) of the same substance?
The RFU was 163 RFU.

What about the RFU ([4]; 0.5 μM, Wild type HEK cells) of the same substance?
The RFU was 143 RFU.

And the RFU ([4]; 1 μM, Overexpressing EGFR)?
Its RFU is 255 RFU.

And the RFU ([4]; 1 μM, Wild type HEK cells)?
The RFU was 287 RFU.

And the “uptake, effect of varying EGFR expression levels” value ([4]; HEK cells overexpressing EGFR vs wild type)?
Its value is “did not affect”.

“GGCATATGCAGATAATGTTC (sugars from the 5' end e5 d10 e5, all phosphorothioate, methylation of C not given here) [compound 395254]” was tested. Which EC50 [1] did it give?
The EC50 was 1240 nM.
